Measurements from ChEMBL document CHEMBL1137391, “Synthesis and evaluation of indenoisoquinoline topoisomerase I inhibitors substituted with nitrogen heterocycles” (2006).

Key:
Format in all cases: functional
HOP-62 = assay: Cytotoxicity against human HOP62 cell line
HCT-116 = assay: Cytotoxicity against human HCT116 cell line
SF-539 = assay: Cytotoxicity against human SF539 cell line
UACC-62 = assay: Cytotoxicity against human UACC62 cell line
OVCAR-3 = assay: Cytotoxicity against human OVCAR-3 cell line
SN12C = assay: Cytotoxicity against human SN12C cell line
DU-145 = assay: Cytotoxicity against human DU145 cell line
MDA-MB-435 = assay: Cytotoxicity against human MDA-MB-435 cell line

O=C1c2ccccc2-c2c1c1ccccc1c(=O)n2CCCn1ccnc1
GI50 (HOP-62): 2690 nM
GI50 (HCT-116): 1410 nM
GI50 (SF-539): 2340 nM
GI50 (UACC-62): 790 nM
GI50 (OVCAR-3): 1660 nM
GI50 (SN12C): 1660 nM
GI50 (DU-145): 1410 nM

COc1cc2c3c(n(CCCN4CCSCC4)c(=O)c2cc1OC)-c1cc2c(cc1C3=O)OCO2
GI50 (HOP-62): 26300 nM
GI50 (HCT-116): 72400 nM
GI50 (SF-539): 18200 nM
GI50 (UACC-62): 37200 nM
GI50 (OVCAR-3): 34700 nM
GI50 (DU-145): > 100000 nM
GI50 (MDA-MB-435): > 100000 nM

COc1cc2c3c(n(CCCNCCN4CCOCC4)c(=O)c2cc1OC)-c1cc2c(cc1C3=O)OCO2
GI50 (HOP-62): < 5 nM
GI50 (HCT-116): < 5 nM
GI50 (SF-539): 550 nM
GI50 (UACC-62): 162 nM
GI50 (OVCAR-3): 525 nM
GI50 (SN12C): 1480 nM
GI50 (DU-145): 603 nM
GI50 (MDA-MB-435): 1950 nM

COc1cc2c3c(n(CCCN4CCN(CCO)CC4)c(=O)c2cc1OC)-c1cc2c(cc1C3=O)OCO2
GI50 (HOP-62): 9770 nM
GI50 (HCT-116): 2340 nM
GI50 (SF-539): 1440 nM
GI50 (UACC-62): 1230 nM
GI50 (OVCAR-3): 15100 nM
GI50 (SN12C): > 100000 nM
GI50 (DU-145): 275 nM
GI50 (MDA-MB-435): > 100000 nM

COc1cc2c3c(n(CCCN4CCCNCC4)c(=O)c2cc1OC)-c1cc2c(cc1C3=O)OCO2
GI50 (HOP-62): < 5 nM
GI50 (HCT-116): 214 nM
GI50 (SF-539): 145 nM
GI50 (UACC-62): 457 nM
GI50 (OVCAR-3): 5010 nM
GI50 (SN12C): 145 nM
GI50 (DU-145): 81 nM
GI50 (MDA-MB-435): 2630 nM

COc1cc2c3c(n(CCCNC4=NCCS4)c(=O)c2cc1OC)-c1cc2c(cc1C3=O)OCO2
GI50 (HOP-62): < 10 nM
GI50 (HCT-116): < 10 nM
GI50 (SF-539): < 10 nM
GI50 (UACC-62): 14 nM
GI50 (OVCAR-3): 41 nM
GI50 (SN12C): < 10 nM
GI50 (DU-145): < 10 nM
GI50 (MDA-MB-435): < 10 nM

COc1cc2c3c(n(CCCN4CCN(C)CC4)c(=O)c2cc1OC)-c1cc2c(cc1C3=O)OCO2
GI50 (HOP-62): 18200 nM
GI50 (HCT-116): 1480 nM
GI50 (SF-539): 17800 nM
GI50 (UACC-62): 15100 nM
GI50 (OVCAR-3): 15100 nM
GI50 (SN12C): 11500 nM
GI50 (DU-145): 10700 nM
GI50 (MDA-MB-435): > 100000 nM

COc1cc2c3c(n(CCCn4ccnc4)c(=O)c2cc1OC)-c1cc2c(cc1C3=O)OCO2
GI50 (HOP-62): < 10 nM
GI50 (HCT-116): < 10 nM
GI50 (SF-539): 37 nM
GI50 (UACC-62): < 10 nM
GI50 (OVCAR-3): 85 nM
GI50 (SN12C): < 10 nM
GI50 (DU-145): < 10 nM
GI50 (MDA-MB-435): 20 nM

COc1cc2c3c(n(CCCN4CCC(N)CC4)c(=O)c2cc1OC)-c1cc2c(cc1C3=O)OCO2
GI50 (HOP-62): 427 nM
GI50 (HCT-116): 120 nM
GI50 (SF-539): 100 nM
GI50 (UACC-62): 1290 nM
GI50 (OVCAR-3): 832 nM
GI50 (SN12C): 257 nM
GI50 (DU-145): 182 nM
GI50 (MDA-MB-435): 1740 nM

COc1cc2c3c(n(CCCN4CCNCC4)c(=O)c2cc1OC)-c1cc2c(cc1C3=O)OCO2
GI50 (HOP-62): < 5 nM
GI50 (HCT-116): 575 nM
GI50 (SF-539): < 5 nM
GI50 (UACC-62): 1200 nM
GI50 (OVCAR-3): 2040 nM
GI50 (SN12C): 91 nM
GI50 (DU-145): 15 nM
GI50 (MDA-MB-435): 4570 nM

COc1cc2c3c(n(CCCn4cccn4)c(=O)c2cc1OC)-c1cc2c(cc1C3=O)OCO2
GI50 (HOP-62): 447 nM
GI50 (HCT-116): 1990 nM
GI50 (SF-539): 398 nM
GI50 (UACC-62): 269 nM
GI50 (OVCAR-3): 56200 nM
GI50 (SN12C): 316 nM
GI50 (DU-145): 363 nM
GI50 (MDA-MB-435): 7080 nM

COc1cc2c3c(n(CCCn4ccnc4)c(=O)c2cc1OC)-c1ccccc1C3=O
GI50 (HOP-62): < 10 nM
GI50 (HCT-116): < 10 nM
GI50 (SF-539): < 10 nM
GI50 (UACC-62): < 10 nM
GI50 (OVCAR-3): < 10 nM
GI50 (SN12C): < 10 nM
GI50 (DU-145): < 10 nM
GI50 (MDA-MB-435): 14 nM

COc1cc2c3c(n(CCCN4CCCC(O)C4)c(=O)c2cc1OC)-c1cc2c(cc1C3=O)OCO2 (configuration not stated)
GI50 (HOP-62): < 5 nM
GI50 (HCT-116): < 5 nM
GI50 (SF-539): < 5 nM
GI50 (UACC-62): 5010 nM
GI50 (OVCAR-3): 5750 nM
GI50 (SN12C): 126 nM
GI50 (DU-145): < 5 nM
GI50 (MDA-MB-435): 977 nM

O=C1c2ccccc2-c2c1c1ccc([N+](=O)[O-])cc1c(=O)n2CCCn1ccnc1
GI50 (HOP-62): 190 nM
GI50 (HCT-116): 274 nM
GI50 (SF-539): 16 nM
GI50 (UACC-62): 12 nM
GI50 (OVCAR-3): 864 nM
GI50 (SN12C): 15 nM
GI50 (DU-145): 17 nM
GI50 (MDA-MB-435): 2170 nM

COc1cc2c3c(n(CCCn4cncn4)c(=O)c2cc1OC)-c1cc2c(cc1C3=O)OCO2
GI50 (HOP-62): 79 nM
GI50 (HCT-116): 1910 nM
GI50 (SF-539): 288 nM
GI50 (UACC-62): < 10 nM
GI50 (OVCAR-3): 61700 nM
GI50 (SN12C): 85 nM
GI50 (DU-145): 85 nM
GI50 (MDA-MB-435): > 100000 nM

COc1cc2c3c(n(C)c(=O)c2cc1OC)-c1cc2c(cc1C3=O)OCO2
GI50 (HOP-62): 1300 nM
GI50 (HCT-116): 35000 nM
GI50 (UACC-62): 4200 nM
GI50 (SN12C): 68000 nM
GI50 (DU-145): 37000 nM
GI50 (MDA-MB-435): 96000 nM

COc1cc2c3c(n(CCCN4CCOCC4)c(=O)c2cc1OC)-c1cc2c(cc1C3=O)OCO2 [INDOTECAN]
GI50 (HOP-62): 1780 nM
GI50 (HCT-116): 1150 nM
GI50 (SF-539): 40 nM
GI50 (UACC-62): 30 nM
GI50 (OVCAR-3): 74100 nM
GI50 (SN12C): 813 nM
GI50 (DU-145): 155 nM
GI50 (MDA-MB-435): 67600 nM
